Calls of active or inactive are those of the source. The calls are words filed in the database; no cut-off is given here.
What was measured:
[1] = target: Xanthine dehydrogenase/oxidase (Bos taurus, UniProt P80457); assay: Inhibition of bovine milk xanthine oxidase
HL-60 [2] = format: functional, cell-based; conditions: Homo sapiens, HL-60, 48 h
HL-60 [3] = assay: Downregulation of HDAC2 expression level in human HL-60 cells at 0.5 to 2 uM by Western blotting analysis; format: functional, cell-based; conditions: dose 0.5-2 µM
HL-60 [4] = assay: Downregulation of HDAC6 expression level in human HL-60 cells at 0.5 to 2 uM by Western blotting analysis; format: functional, cell-based; conditions: dose 0.5-2 µM
MDA-MB-231 [5] = assay: Downregulation of HDAC1 expression level in human MDA-MB-231 cells at 0.5 to 2 uM by Western blotting analysis; format: functional, cell-based; conditions: dose 0.5-2 µM
MDA-MB-231 [6] = assay: Downregulation of HDAC2 expression level in human MDA-MB-231 cells at 0.5 to 2 uM by Western blotting analysis; format: functional, cell-based; conditions: dose 0.5-2 µM
MDA-MB-231 [7] = assay: Downregulation of HDAC3 expression level in human MDA-MB-231 cells at 0.5 to 2 uM by Western blotting analysis; format: functional, cell-based; conditions: dose 0.5-2 µM
HL-60 [8] = assay: Upregulation of acetylated histone H3 level in human HL-60 cells by Western blotting analysis; format: functional, cell-based; conditions: dose 0.5-2 µM
HL-60 [9] = assay: Upregulation of acetylated alpha tubulin level in human HL-60 cells by Western blotting analysis; format: functional, cell-based; conditions: dose 0.5-2 µM
MDA-MB-231 [10] = assay: Upregulation of acetylated histone H3 level in human MDA-MB-231 cells by Western blotting analysis; format: functional, cell-based; conditions: dose 0.5-2 µM
MDA-MB-231 [11] = assay: Upregulation of acetylated tubulin level in human MDA-MB-231 cells by Western blotting analysis; format: functional, cell-based; conditions: dose 0.5-2 µM
HL-60 [12] = assay: Induction of apoptosis in human HL-60 cells at 0.5 to 2 uM incubated for 48 hrs by propidium iodide staining based flow cytometry analysis; format: functional, cell-based; conditions: dose 0.5-2 µM
HL-60 [13] = assay: Downregulation of mTOR expression level in human HL-60 cells at 0.5 to 2 uM by Western blotting analysis; format: functional, cell-based; conditions: dose 0.5-2 µM
HL-60 [14] = assay: Induction of apoptosis in human HL-60 cells assessed as morphological changes at 0.5 to 2 uM by DAPI staining based microscopic analysis; format: functional, cell-based; conditions: dose 0.5-2 µM
Mitochondrial membrane = assay: Induction of mitochondrial membrane potential loss in human HL-60 cells at 0.5 to 2 uM by rhodamine 123 staining based flow cytometry analysis; conditions: dose 0.5-2 µM
HL-60 [15] = assay: Induction of autophagy in human HL-60 cells at 0.5 to 2 uM by acridine orange staining based microscopic assay; format: functional, cell-based; conditions: dose 0.5-2 µM
HL-60 [16] = assay: Induction of autophagy in human HL-60 cells assessed as upregulation of LC3-II expression level at 0.5 to 2 uM by Western blotting assay; format: functional, cell-based; conditions: dose 0.5-2 µM
HL-60 [17] = assay: Antitumor activity against human HL-60 cells xenografted in ip dosed BALB/c nude mouse model assessed as reduction in tumor volume and measured twice a week for 22 days; format: functional, organism-based; conditions: dose 50-100 mg/kg, time 22.0 day
HL-60 [18] = assay: Antitumor activity against human HL-60 cells xenografted in BALB/c nude mouse model assessed as reduction in tumor volume at 50 to 100 mg/kg, ip measured twice a week for 22 days; format: functional, organism-based; conditions: dose 50-100 mg/kg, time 22.0 day
Rattus norvegicus [19] = assay: Anti-hyperuricemic activity against potassium oxonate-induced hyperuricemia Wistar rat model assessed as decrease in serum uric acid level at 2.5 mg/kg measured after 14 days; format: functional, organism-based; conditions: time 14.0 day
Rattus norvegicus [20] = assay: Anti-hyperuricemic activity against potassium oxonate-induced hyperuricemia Wistar rat model assessed as decrease in serum uric acid level at 10 mg/kg measured after 14 days; format: functional, organism-based; conditions: time 14.0 day
Rattus norvegicus [21] = assay: Anti-hyperuricemic activity against potassium oxonate-induced hyperuricemia Wistar rat model assessed as decrease in serum creatinine level at 5 to 10 mg/kg measured after 14 days; format: functional, organism-based; conditions: dose 5-10 mg/kg, time 14.0 day
Rattus norvegicus [22] = assay: Anti-hyperuricemic activity against potassium oxonate-induced hyperuricemia Wistar rat model assessed as decrease in blood urea level at 5 to 10 mg/kg measured after 14 days; format: functional, organism-based; conditions: dose 5-10 mg/kg, time 14.0 day
Rattus norvegicus [23] = assay: Anti-hyperuricemic activity against potassium oxonate-induced hyperuricemia Wistar rat model assessed as decrease in blood urea level at 2.5 mg/kg measured after 14 days; format: functional, organism-based; conditions: time 14.0 day
Rattus norvegicus [24] = assay: Anti-hyperuricemic activity against potassium oxonate-induced hyperuricemia Wistar rat model assessed as effect on complete blood count at 2.5 mg/kg measured after 14 days; format: functional, organism-based; conditions: time 14.0 day
Rattus norvegicus [25] = assay: Anti-hyperuricemic activity against potassium oxonate-induced hyperuricemia Wistar rat model assessed as decrease in number of basophils at 5 mg/kg measured after 14 days; format: functional, organism-based; conditions: time 14.0 day
Rattus norvegicus [26] = assay: Anti-hyperuricemic activity against potassium oxonate-induced hyperuricemia Wistar rat model assessed as decrease in number of eosinophils at 5 mg/kg measured after 14 days; format: functional, organism-based; conditions: time 14.0 day
Rattus norvegicus [27] = assay: Anti-hyperuricemic activity against potassium oxonate-induced hyperuricemia Wistar rat model assessed as increase in neutrophils at 5 mg/kg measured after 14 days; format: functional, organism-based; conditions: time 14.0 day
Rattus norvegicus [28] = assay: Anti-hyperuricemic activity against potassium oxonate-induced hyperuricemia Wistar rat model assessed as increase in lymphocytes at 5 mg/kg measured after 14 days; format: functional, organism-based; conditions: time 14.0 day
Rattus norvegicus [29] = assay: Anti-hyperuricemic activity against potassium oxonate-induced hyperuricemia Wistar rat model assessed as increase in RBC at 5 mg/kg measured after 14 days; format: functional, organism-based; conditions: time 14.0 day
Rattus norvegicus [30] = assay: Anti-hyperuricemic activity against potassium oxonate-induced hyperuricemia Wistar rat model assessed as increase in hemoglobin levels at 5 mg/kg measured after 14 days; format: functional, organism-based; conditions: time 14.0 day
Rattus norvegicus [31] = assay: Anti-hyperuricemic activity against potassium oxonate-induced hyperuricemia Wistar rat model assessed as enhancement in complete blood count at 10 mg/kg measured after 14 days; format: functional, organism-based; conditions: time 14.0 day
Rattus norvegicus [32] = assay: Anti-hyperuricemic activity against potassium oxonate-induced hyperuricemia Wistar rat model assessed as improvement in renal condition at 2.5 mg/kg measured after 14 days by H and E staining based assay; format: functional, organism-based; conditions: time 14.0 day
Rattus norvegicus [33] = assay: Anti-hyperuricemic activity against potassium oxonate-induced hyperuricemia Wistar rat model assessed as improvement in renal condition at 5 mg/kg by measuring decrease in degeneration of tubular cells measured after 14 days by H and E staining based assay; format: functional, organism-based; conditions: time 14.0 day
Rattus norvegicus [34] = assay: Anti-hyperuricemic activity against potassium oxonate-induced hyperuricemia Wistar rat model assessed as improvement in renal condition at 5 mg/kg by measuring decrease in enlargement of tubular cells measured after 14 days by H and E staining based assay; format: functional, organism-based; conditions: time 14.0 day
Rattus norvegicus [35] = assay: Anti-hyperuricemic activity against potassium oxonate-induced hyperuricemia Wistar rat model assessed as improvement in renal condition at 5 mg/kg by measuring decrease in enlargement of glomeruli measured after 14 days by H and E staining based assay; format: functional, organism-based; conditions: time 14.0 day
Rattus norvegicus [36] = assay: Anti-hyperuricemic activity against potassium oxonate-induced hyperuricemia Wistar rat model assessed as improvement in renal condition by measuring decrease in tubular cell swelling at 10 mg/kg measured after 14 days by H and E staining based assay; format: functional, organism-based; conditions: time 14.0 day
Rattus norvegicus [37] = assay: Anti-hyperuricemic activity against potassium oxonate-induced hyperuricemia Wistar rat model assessed as improvement in renal condition by measuring normal glomeruli appearance at 10 mg/kg measured after 14 days by H and E staining based assay; format: functional, organism-based; conditions: time 14.0 day
Rattus norvegicus [38] = assay: Anti-hyperuricemic activity against potassium oxonate-induced hyperuricemia Wistar rat model assessed as reduction in DCT expansion at 10 mg/kg measured after 14 days by H and E staining based assay; format: functional, organism-based; conditions: time 14.0 day
K562 = assay: Cytotoxicity against human K562 cells incubated for 1 day by MTT assay; format: functional, cell-based; conditions: K562, 24 h
[39] = Cytotoxicity against mouse L929 cells incubated for 1 day by MTT assay; format: toxicity, cell-based
MDA-MB-231 [40] = assay: cells; conditions: Homo sapiens, MDA-MB-231, 48 h
Description: Cytotoxicity against human MDA-MB-231 cells incubated for 48 hrs by MTT assay

Sequence of Xanthine dehydrogenase/oxidase (P80457 whole entry): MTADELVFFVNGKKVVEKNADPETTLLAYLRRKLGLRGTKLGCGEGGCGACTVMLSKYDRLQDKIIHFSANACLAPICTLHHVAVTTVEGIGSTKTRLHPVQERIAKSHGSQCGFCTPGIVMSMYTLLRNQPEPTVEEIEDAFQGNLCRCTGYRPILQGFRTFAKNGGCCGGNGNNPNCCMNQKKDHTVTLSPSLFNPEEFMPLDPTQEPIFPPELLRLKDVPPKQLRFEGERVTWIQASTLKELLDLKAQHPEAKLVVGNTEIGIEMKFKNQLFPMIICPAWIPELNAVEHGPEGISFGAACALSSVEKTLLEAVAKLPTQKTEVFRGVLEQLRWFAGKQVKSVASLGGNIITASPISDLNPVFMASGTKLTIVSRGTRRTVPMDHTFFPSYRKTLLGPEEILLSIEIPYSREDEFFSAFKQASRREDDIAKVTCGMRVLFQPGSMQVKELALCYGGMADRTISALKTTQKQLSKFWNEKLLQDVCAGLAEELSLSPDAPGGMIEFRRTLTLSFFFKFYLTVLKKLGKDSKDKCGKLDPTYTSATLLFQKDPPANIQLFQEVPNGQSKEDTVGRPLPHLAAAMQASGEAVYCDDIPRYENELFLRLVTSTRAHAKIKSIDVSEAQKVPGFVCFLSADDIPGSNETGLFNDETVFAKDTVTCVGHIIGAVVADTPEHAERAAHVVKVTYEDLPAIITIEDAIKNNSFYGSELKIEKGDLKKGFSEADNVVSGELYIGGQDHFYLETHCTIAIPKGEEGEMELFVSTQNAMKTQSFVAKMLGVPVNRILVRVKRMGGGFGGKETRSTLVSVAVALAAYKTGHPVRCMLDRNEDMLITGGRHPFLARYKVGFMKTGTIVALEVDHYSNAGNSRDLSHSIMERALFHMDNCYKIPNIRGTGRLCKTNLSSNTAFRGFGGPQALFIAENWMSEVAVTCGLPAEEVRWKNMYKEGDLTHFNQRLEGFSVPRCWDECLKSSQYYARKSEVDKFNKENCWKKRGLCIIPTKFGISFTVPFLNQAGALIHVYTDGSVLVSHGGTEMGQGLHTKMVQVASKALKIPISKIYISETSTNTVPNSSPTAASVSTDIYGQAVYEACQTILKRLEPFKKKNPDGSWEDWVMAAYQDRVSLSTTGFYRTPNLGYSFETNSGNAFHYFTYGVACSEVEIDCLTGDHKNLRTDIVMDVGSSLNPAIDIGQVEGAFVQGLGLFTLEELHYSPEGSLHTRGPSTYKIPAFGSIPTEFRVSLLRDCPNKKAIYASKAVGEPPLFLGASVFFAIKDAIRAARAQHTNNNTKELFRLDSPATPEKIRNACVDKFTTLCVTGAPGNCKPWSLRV

In the case of `Cc1nc(-c2ccc(OCC(C)C)c(C#N)c2)sc1C(=O)NCCCCCCC(=O)NO`, the IC50 [1] is reported as 6.6 nM, the IC50 (HL-60 [2]) is reported as 706 nM and the Activity (HL-60 [3]) is reported as “Active; Activity More Potent Than Saha”. The Activity (HL-60 [4]) was “Active; Activity More Potent Than Saha”, the Activity (MDA-MB-231 [5]) was “Active” and the Activity (MDA-MB-231 [6]) was “Active”. For the same compound, the Activity (MDA-MB-231 [7]) was “Active”, the Activity (HL-60 [8]) was “Dose-dependent-effect” and the Activity (HL-60 [9]) was “Dose-dependent-effect”. The Activity (MDA-MB-231 [10]) was “Dose-dependent-effect”, the Activity (MDA-MB-231 [11]) was “Dose-dependent-effect” and the Activity (HL-60 [12]) was “Active; Activity Similar To Saha”. For the same compound, the Activity (HL-60 [13]) was “Active”, the Activity (HL-60 [14]) was “Active” and the Activity (Mitochondrial membrane) was “Active”. For the same compound, the Activity (HL-60 [15]) was “Active”, the Activity (HL-60 [16]) was “Active” and the Activity (HL-60 [17]) was “Dose-dependent-effect”. For the same compound, the Activity (HL-60 [18]) was “Active; Activity More Potent Than Saha”, the Activity (Rattus norvegicus [19]) was “inactive” and the Activity (Rattus norvegicus [20]) was “Active”. For the same compound, the Activity (Rattus norvegicus [21]) was “Active”, the Activity (Rattus norvegicus [22]) was “Active” and the Activity (Rattus norvegicus [23]) was “inactive”. For the same compound, the Activity (Rattus norvegicus [24]) was “inactive”, the Activity (Rattus norvegicus [25]) was “Active” and the Activity (Rattus norvegicus [26]) was “Active”. The Activity (Rattus norvegicus [27]) was “Active”, the Activity (Rattus norvegicus [28]) was “Active” and the Activity (Rattus norvegicus [29]) was “Active”. For the same compound, the Activity (Rattus norvegicus [30]) was “Active”, the Activity (Rattus norvegicus [31]) was “Active” and the Activity (Rattus norvegicus [32]) was “inactive”. The Activity (Rattus norvegicus [33]) was “Active”, the Activity (Rattus norvegicus [34]) was “Active” and the Activity (Rattus norvegicus [35]) was “Active”. For the same compound, the Activity (Rattus norvegicus [36]) was “Active”, the Activity (Rattus norvegicus [37]) was “Active” and the Activity (Rattus norvegicus [38]) was “Active”. For the same compound, the IC50 (K562) was 1210 nM, the IC50 at 1 day [39] was 2230 nM and the IC50 (MDA-MB-231 [40]) was 2940 nM.
